One compound from US9833454B2, “Difluoromethoxy compound with low bioactivation potential for the reduction of beta-amyloid production” (BRISTOL-MYERS SQUIBB COMPANY, priority 2014, dated 2017) can be followed below.

In data set [1] the target is T1, CYP2B6 (Homo sapiens, UniProt P20813).
T1 sequence (P20813 1-491): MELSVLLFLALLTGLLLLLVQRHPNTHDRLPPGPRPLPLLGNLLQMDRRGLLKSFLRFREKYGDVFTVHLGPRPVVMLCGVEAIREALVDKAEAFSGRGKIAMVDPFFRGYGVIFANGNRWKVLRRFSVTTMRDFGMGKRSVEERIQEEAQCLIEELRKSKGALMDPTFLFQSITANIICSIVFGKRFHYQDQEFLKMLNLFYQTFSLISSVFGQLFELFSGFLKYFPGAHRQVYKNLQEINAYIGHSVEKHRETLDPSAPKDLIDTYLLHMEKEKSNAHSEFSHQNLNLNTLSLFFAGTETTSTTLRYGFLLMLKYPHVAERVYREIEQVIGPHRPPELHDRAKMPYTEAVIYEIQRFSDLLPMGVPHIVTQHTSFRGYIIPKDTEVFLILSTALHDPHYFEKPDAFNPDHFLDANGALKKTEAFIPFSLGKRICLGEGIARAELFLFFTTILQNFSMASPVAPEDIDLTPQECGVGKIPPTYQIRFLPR
Put plainly: Inhibition of recombinant CYP enzymes (rCYP), CYP2B6. The data set is classed as in vitro ADME. Conditions: average of two experiments, read-out: rCYP IC50 2B6.

Data set [2] addresses T2, CYP3A4 (Homo sapiens, UniProt P08684). Put plainly: Inhibition of CYP enzymes in human liver microsomes (HLM), CYP3A4 (midazolam and testosterone). Conditions: IC50 shift 0 vs 30 min preincubation (TDI ratio).
Data set [3] deals with T3, CYP2C9 (Homo sapiens, UniProt P11712). Nature of the data set: Inhibition of CYP enzymes in human liver microsomes (HLM), CYP2C9. The format is in vitro ADME.
Data set [4] addresses T1, CYP2B6. Put plainly: Inhibition of CYP enzymes in human liver microsomes (HLM), CYP2B6. The data set is classed as in vitro ADME.
Data set [5] deals with T4, CYP2D6 (Homo sapiens, UniProt P10635). Put plainly: Inhibition of CYP enzymes in human liver microsomes (HLM), CYP2D6. Conditions: IC50 shift 0 vs 30 min preincubation (TDI ratio).
The target in data set [6] is 43 receptor and Enzyme panel (all others). Nature of the data set: In vitro safety: 43 receptor and enzyme panel, all others. Conditions: targets other than A2A, DAT, D1, MAO A, read-out: 43 receptor and Enzyme IC50s, all others. The procedure:
A range of off-target receptor binding assays and enzyme assays were carried out using conventional methods available in the art.

For another data set, the target named is T5, CYP1A2 (Homo sapiens, UniProt P05177).
T5 sequence (P05177 1-516): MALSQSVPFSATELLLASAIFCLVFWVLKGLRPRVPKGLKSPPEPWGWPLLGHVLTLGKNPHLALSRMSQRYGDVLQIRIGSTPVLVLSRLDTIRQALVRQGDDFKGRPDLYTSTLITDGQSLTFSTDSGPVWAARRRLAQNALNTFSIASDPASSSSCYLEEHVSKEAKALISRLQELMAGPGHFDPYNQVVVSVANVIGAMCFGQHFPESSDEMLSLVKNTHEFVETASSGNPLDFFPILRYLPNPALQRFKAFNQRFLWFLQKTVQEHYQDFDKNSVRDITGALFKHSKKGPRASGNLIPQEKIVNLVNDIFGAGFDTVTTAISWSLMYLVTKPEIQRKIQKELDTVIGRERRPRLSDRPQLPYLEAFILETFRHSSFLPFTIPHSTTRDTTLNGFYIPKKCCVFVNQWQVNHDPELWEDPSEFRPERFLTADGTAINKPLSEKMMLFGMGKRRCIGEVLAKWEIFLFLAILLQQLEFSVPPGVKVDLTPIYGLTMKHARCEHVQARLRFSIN
Nature of the data set: Inhibition of CYP enzymes in human liver microsomes (HLM), CYP1A2.

Data set [7] has as its target T4, CYP2D6. Put plainly: biochemical.
The target in data set [8] is T3, CYP2C9. Nature of the data set: Inhibition of recombinant CYP enzymes (rCYP), CYP2C9. The format is in vitro ADME. Conditions: average of two experiments, read-out: rCYP IC50 2C9.
Data set [9] concerns the target T2, CYP3A4. Nature of the data set: biochemical.
Setting [10] is: HLM, IC50 shift 0 vs 30 min preincubation (TDI ratio).

The structures appear in SMILES notation. Values joined by “and” are separate entries in the source; they are usually repeats but may differ in a detail not shown here. Identical values can stand only once. Like-named read-outs stand apart in the source and are kept apart here.

T3 sequence (P11712 whole entry): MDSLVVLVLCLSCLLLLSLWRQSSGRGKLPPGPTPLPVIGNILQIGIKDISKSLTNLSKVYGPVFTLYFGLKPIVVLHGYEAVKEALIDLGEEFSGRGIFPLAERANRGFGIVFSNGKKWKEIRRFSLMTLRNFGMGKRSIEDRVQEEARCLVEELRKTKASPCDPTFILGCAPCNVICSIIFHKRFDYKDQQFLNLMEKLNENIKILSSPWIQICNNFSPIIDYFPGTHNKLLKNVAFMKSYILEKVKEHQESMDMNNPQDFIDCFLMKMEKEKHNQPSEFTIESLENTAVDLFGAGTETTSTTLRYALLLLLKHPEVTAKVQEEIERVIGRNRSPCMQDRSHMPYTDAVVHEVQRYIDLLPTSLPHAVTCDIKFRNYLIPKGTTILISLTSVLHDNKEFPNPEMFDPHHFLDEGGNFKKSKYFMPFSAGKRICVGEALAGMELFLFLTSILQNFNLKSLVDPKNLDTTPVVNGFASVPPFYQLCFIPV
T2 sequence (P08684 whole entry): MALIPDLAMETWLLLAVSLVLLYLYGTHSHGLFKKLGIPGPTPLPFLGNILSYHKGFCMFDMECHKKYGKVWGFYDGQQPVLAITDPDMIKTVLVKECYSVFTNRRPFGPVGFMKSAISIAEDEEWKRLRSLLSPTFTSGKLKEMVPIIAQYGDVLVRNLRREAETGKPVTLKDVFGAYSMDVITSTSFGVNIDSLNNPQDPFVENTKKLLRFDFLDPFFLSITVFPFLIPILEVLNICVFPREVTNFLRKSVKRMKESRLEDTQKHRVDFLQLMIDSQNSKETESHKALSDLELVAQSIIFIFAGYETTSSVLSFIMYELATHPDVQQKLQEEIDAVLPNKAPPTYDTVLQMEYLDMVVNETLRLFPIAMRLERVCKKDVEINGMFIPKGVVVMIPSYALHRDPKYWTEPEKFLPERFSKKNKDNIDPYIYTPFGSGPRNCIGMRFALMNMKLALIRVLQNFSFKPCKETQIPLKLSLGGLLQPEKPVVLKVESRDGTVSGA
T4 sequence (P10635 whole entry): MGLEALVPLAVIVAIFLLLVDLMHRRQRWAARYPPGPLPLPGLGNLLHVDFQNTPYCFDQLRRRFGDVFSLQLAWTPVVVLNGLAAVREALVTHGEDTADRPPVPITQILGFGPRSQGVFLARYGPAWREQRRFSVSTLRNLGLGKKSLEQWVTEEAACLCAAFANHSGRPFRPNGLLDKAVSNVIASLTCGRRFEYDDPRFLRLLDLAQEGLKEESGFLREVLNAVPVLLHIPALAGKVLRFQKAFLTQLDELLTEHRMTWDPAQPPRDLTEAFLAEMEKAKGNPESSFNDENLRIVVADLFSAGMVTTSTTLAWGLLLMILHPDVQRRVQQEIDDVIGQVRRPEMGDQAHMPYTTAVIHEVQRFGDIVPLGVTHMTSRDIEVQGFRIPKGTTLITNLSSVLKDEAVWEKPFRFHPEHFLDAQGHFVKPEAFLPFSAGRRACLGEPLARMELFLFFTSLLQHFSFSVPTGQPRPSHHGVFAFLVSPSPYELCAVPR

With `CNc1nc(Nc2ccc(-n3cnc(C)n3)c(OC(F)F)c2)nc2c1C(C)(C)CC2c1ccc(F)cc1` (single isomer, unassigned) [Enantiomer 1, N2-(3-(difluoromethoxy)-4-(3-methyl-1H-1,2,4-triazol-1-yl)phenyl)-7-(4-fluorophenyl)-N4,5,5-trimethyl-6,7-dihydro-5H-cyclopenta[d]pyrimidine-2,4-diamine], the IC50 at CYP2B6 [1] is over 20 µM; on CYP2C9 [3] (HLM, 0 min preincubation, read-out: IC50-0 min 2C9), 12.7 µM; against CYP2C9 [3] (IC50-30 min 2C9, HLM, 30 min preincubation with NADPH) it was 8.8 µM; on CYP2B6 [4] (0 min preincubation, read-out: IC50-0 min 2B6), over 40 µM; on CYP2B6 [4] (read-out: IC50-30 min 2B6, 30 min preincubation with NADPH), over 40 µM; in [6] it was over 10 µM. Moreover, the IC50 against CYP1A2 was over 40 µM; on CYP1A2 (read-out: IC50-30 min 1A2, HLM, 30 min preincubation with NADPH) it was over 40 µM; against CYP2D6 [7], 34.5 µM and 15.6 µM; at CYP2C9 [8] it was 1.3 µM; against CYP3A4 [9], ~40 µM and 12 µM and 15.1 µM and 4.5 µM and ~12 µM. Also, the “IC50 Ratio 3A4-(MDZ)” value on CYP3A4 [2] (midazolam probe) is reported as 2.6. Moreover, the “IC50 Ratio 3A4-(TST)” value at CYP3A4 [2] (testosterone probe) amounted to 2.7. Moreover, the “IC50 Ratio 2C9” value on CYP2C9 [3] (setting [10]) came out at 1.4. The “IC50 Ratio 2B6” value on CYP2B6 [4] (IC50 shift 0 vs 30 min preincubation (TDI ratio)) is 1.0. Moreover, at CYP2D6 [5], the “IC50 Ratio 2D6” value is 2.2. At CYP1A2 (setting [10]), the “IC50 Ratio 1A2” value is listed as 1.0.
